Patent publication US10907168B2, “Jasmonic acid pathway activator” (MEDICAGO INC., priority 2015, dated 2021)

Key:
[1] = test system: RuBisCO large and small subunit; test: RuBisCO large and small subunit levels, immunodetection and densitometry; assay type: in vivo, Nicotiana benthamiana; settings: for depletion of RuBisCO large and small subunit pools, less than in controls: uninfiltrated leaves, seven days post-treatment
Procedure: FIGS. 1a-1d show total soluble proteins (TSP), 1-D proteome profile and RuBisCO subunit levels in agroinfiltrated and control N. benthamiana leaves treated with the stress elicitor MeJA 24 h before infection. […] FIGS. 1c and 1d show relative amounts of RuBisCO large (RbcL; FIG. 1c) and small (RbsS; FIG. 1d) subunits in MeJA-treated leaves as determined by densitometry following immunodetection with appropriate antibodies. Protein signals on the immunoblots were quantified using the Phoretix 2-D Expression software v. 2005 (NonLinear USA, Durham N.C., U.S.A.) after scanning nitrocellulose membranes with a Microtek ScanMaker II digitalizer (Microtek Laboratory, Torrance Calif., U.S.A.). Data are expressed as relative levels compared to non-treated controls assigned an arbitrary level of 1.0. Each bar on panels (a) and (c) is the mean of three independent (leaf replicate) values±SE. Infiltrated leaves were transfected with A. tumefaciens cells 24 h post-MeJA treatment. All plant samples were harvested seven days post-MeJA treatment (i.e. six days post-agroinfiltration for the transfected plants).
Forty-two day-old N. benthamiana plants grown in greenhouse were used for the experiments. Each plant was sprayed evenly with 50 ml of 0.5 mM, 1 mM or 2 mM MeJA in water containing 0.1% (v/v) Triton X-100 (Sigma-Aldrich, Mississauga ON, Canada), or with 50 ml of 1 mM arachidonic acid (Girard et al., 2007) in the same solvent, and transferred for seven days in a Conviron growth chamber (Conviron, Winnipeg MB, Canada). Plants sprayed with 50 ml of 0.1% (v/v) Triton X-100 in water were used in parallel as negative controls to avoid confounding effects due to experimental conditions. Two or three 1-cm^2 leaf discs were harvested from the third main stem leaf (see Robert et al., 2013) after seven days, as source material for protein and RNA extraction. The leaf samples were frozen immediately in liquid nitrogen and stored at −80° C. until protein or RNA extraction. Three to five biological (plant) replicates were used for each treatment, to allow for statistical treatment of the data. […]

A. tumefaciens VirE1 = test: Real-time RT PCR of VirE1 transcripts in agroinfiltrated leaves; assay type: in vivo, Agrobacterium tumefaciens; settings: 1 mM, seven days post-treatment
Procedure: mRNA transcripts for C5-1 and A. tumefaciens virulence proteins VirB1 and VirE1 were assayed by real-time RT PCR using an ABI PRISM 7500 Fast real-time PCR apparatus, system version 2.0.1 (Applied Biosystems, Carlsbad Calif., U.S.A.). Total RNA was extracted from two 1-cm^2 leaf discs collected on the third main stem leaf (Robert et al., 2013) using the Qiagen RNeasy plant mini kit (Qiagen), following the supplier's instructions. RNA samples were treated with DNase I (Roche Diagnostics) to remove contaminant DNA and assessed for quality and quantity using a Nanodrop® ND-1000 spectrophotometer (NanoDrop Technologies, Wilmington Del., USA). First-strand cDNA was synthesized from 500 ng of total RNA using 4 units of Omniscript reverse transcriptase (Qiagen) and 1 μM of oligo-dT (15) nucleotides (Roche). PCR reactions contained 10 μl of Fast SYBR Green PCR Master Mix (Applied Biosystems), 2 μl of cDNA template, and 2.5 μl each of appropriate forward and reverse primers at 625 nM final concentration (Table 1). A no-template mixture control was included in each 96-well plate. Amplification rounds consisted of a 20-s denaturation step at 95° C., followed by 40 two-step cycles of 3 s at 95° C. and 30 s at 60° C. […]

CC/C=C\C[C@H]1C(=O)CC[C@@H]1CC(=O)OC [MeJA, methyl jasmonate]
depletion of RuBisCO large and small subunit pools, less than in controls ([1]; 0.5 mM dose): ~40% | depletion of RuBisCO large and small subunit pools, less than in controls ([1]; 2 mM dose): more than 90% | RuBisCO large and small subunits, share of original content relative to untreated plants ([1]; agroinfiltrated leaves (empty vector, 24 h post-treatment), 1 or 2 mM, six days post-infection): less than 50% | VirE1 transcription versus control leaves (A. tumefaciens VirE1): no positive effect
